This note sets out measurements from patent publication US4263326A, “Antimicrobial compositions containing an octylphenone” (The Lion Dentrifice Co. Ltd., priority 1978, dated 1981).

Series [1] has as its system Bacillus subtilis. Kind of series: Growth prevention of Bacillus subtilis in tripticase soy broth culture media at 37° C. It is filed as cell-based. The method, then: For comparative purpose, three more culture media were prepared without addition of an antimicrobial agnet or with addition of 2% by weight of ethyl alcohol or 0.2% by weight of sorbic acid instead of the phenone compound and Bacillus subtilis was cultured therein similarly.

Series [2] can be described thus: Oral LD50 in rats. To be noted: rat, in vivo, po. It is filed as in vivo.
For series [3], the system named is rats. Kind of series: Oral LD50 in rats. The class given is in vivo.
The nature of series [4]: Irritancy / physiological activity.
The subject of series [5] is Aspergillus niger. On the set-up: key to the marks not given beside the values. The conditions noted are these: 5%, 28° C. Here is the method:
(§1) The antifungal effect of the extract powder prepared in Example 2 was examined by adding it into potato-dextrose agar culture media in an amount of 0.2% by weight in which Aspergillus niger or Penicillium crysogenum were cultured at 28° C. For comparison, similar culture tests of the fungi were undertaken with the culture media in which no antimicrobial agent was added or 5% by weight of ethyl alcohol was added instead of the extract powder.
(§2) the results are summarized in Table 2 below, in which the marks "±" are for the cases where the growth of the molds was difficultly recognized, the marks "+" are for the cases where the growth of the molds could be recognized only of the hyphae though to a small extent, the mark "++" are for the cases where the growth could be recognized only of the hyphae to a considerable extent, and the marks "+++" and "++++" are for the cases where spores were formed.

Series [6] deals with Penicillium crysogenum. The conditions noted are these: 5%, 28° C. Here is the method:
as §1, §2

Each structure is given as a SMILES string. Like-named read-outs stand apart in the source and are kept apart here. Some results are limits rather than exact numbers.

Usually LD50 stands for the dose at which mortality reaches 50%.

As for `O=C(CCCCCCCCc1cc(O)ccc1O)c1c(O)cccc1O` [2',6'-dihydroxy-9-(2,5-dihydroxyphenyl)octylphenone], the “duration of growth prevention” value in series [1] (0.002% by weight, tripticase soy broth) is at least 7.5 h. For the same compound, the “effectiveness compared with sorbic acid” value in series [1] (0.002% vs sorbic acid 0.2%) is reported as “more effective than sorbic acid”. In addition, in series [1] (concentration one hundredth of that of sorbic acid), the “antimicrobial effect compared with sorbic acid” value is on record as “as good as that of sorbic acid”. The same compound yielded an LD50 in series [2] of at least 2000 mg/kg. Besides, the LD50 in series [3] was 2000 mg/kg. Further, in series [4], the irritancy entry is on record as “non-irritant” and the physiological activity entry is “physiologically inactive”.
As for `CCO` [Ethyl alcohol], the growth of mold entry was “++” in series [5] (10 days), “++” in series [5] (18 days), “±” in series [6] (10 days) and “++” in series [6] (18 days).
For `C/C=C/C=C/C(=O)O` [Sorbic acid, reference compound], the “duration of antimicrobial effect” value in series [1] (0.2% by weight, tripticase soy broth) is recorded as “about 4.5 hours”.
